Test systems include SN12C renal; SK-MEL-5 melanoma; NCI-H460 lung; DU-145 prostate; MCF7 breast; M14 melanoma; HCT-15 colon; UACC-62 melanoma; HOP-62 NSCLC; MDA-MB-231 breast; HL-60(TB) leukemia; SK-MEL-2 melanoma; MDA-MB-435; SNB-19 CNS; SW-620 colon; TK-10 renal; CCRF-CEM leukemia; HT29 colon.
What all share (assay): NCI-60 cell line screen, 48 h

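96-well plates; 48 h exposure; 5 concentrations. Endpoints by linear interpolation between flanking doses. Not reached: highest tested concentration assigned. TGI denotes the concentration required for complete inhibition of growth.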 Some results are limits rather than exact numbers.

Consider `CC(C)CCNC(=O)c1ccc(CNC(=O)/C=C/c2ccc3ccccc3c2)cc1`, for which the TGI in the assay on SN12C renal, with SK-MEL-5 melanoma, with NCI-H460 lung, with DU-145 prostate, with MCF7 breast and with M14 melanoma was above 100 µM each time. Also, the TGI in the assay with HCT-15 colon, in the assay on UACC-62 melanoma, with HOP-62 NSCLC, with MDA-MB-231 breast, in the assay with HL-60(TB) leukemia and in the assay with SK-MEL-2 melanoma was above 100 µM in each case. Further, the TGI in the assay with MDA-MB-435, with SNB-19 CNS and in the assay with SW-620 colon was above 100 µM in each case.

Consider `CC(=O)OC(COc1ccc2c(c1)[n+]([O-])nc(N)[n+]2[O-])CN1CCCCC1` (stereo unspecified), for which the TGI with SN12C renal was determined as 40.3 µM; in the assay on SK-MEL-5 melanoma, 14.6 µM; in the assay on NCI-H460 lung, 21.8 µM; in the assay with DU-145 prostate, 54.9 µM; in the assay with TK-10 renal it was 96.4 µM; in the assay with MCF7 breast, 65.8 µM. The TGI in the assay on M14 melanoma is 38.7 µM; in the assay with CCRF-CEM leukemia, 79.3 µM; in the assay on HCT-15 colon it was 31.6 µM; in the assay on MDA-MB-231 breast, 28 µM; in the assay with HL-60(TB) leukemia it was 26.9 µM; with SK-MEL-2 melanoma, 26.4 µM. Further, the TGI in the assay with MDA-MB-435 is above 100 µM; with SNB-19 CNS, above 100 µM; in the assay with SW-620 colon, above 100 µM; with HT29 colon, 23.1 µM.

Take `Cn1c2ncccc2n2c(=O)cc(O)cc12`: the TGI with SK-MEL-5 melanoma, in the assay on NCI-H460 lung, with DU-145 prostate, with TK-10 renal, with MCF7 breast and in the assay on M14 melanoma was above 100 µM throughout. Also, the TGI in the assay on CCRF-CEM leukemia, in the assay with HCT-15 colon, with UACC-62 melanoma, in the assay on HOP-62 NSCLC, with MDA-MB-231 breast and with SK-MEL-2 melanoma was above 100 µM throughout. Moreover, the TGI in the assay on MDA-MB-435, in the assay with SNB-19 CNS, in the assay on SW-620 colon and in the assay with HT29 colon was above 100 µM each time.

`Cc1n[nH]c(=O)n1/N=C/c1ccco1`: the TGI with SN12C renal, with NCI-H460 lung, in the assay on DU-145 prostate, with MCF7 breast, with M14 melanoma and in the assay on CCRF-CEM leukemia was above 100 µM each time. Further, the TGI with HCT-15 colon, in the assay on UACC-62 melanoma, in the assay on HOP-62 NSCLC, with MDA-MB-231 breast, in the assay with SK-MEL-2 melanoma and with MDA-MB-435 was above 100 µM in each case. For the same molecule, the TGI in the assay with SNB-19 CNS, in the assay on SW-620 colon and in the assay with HT29 colon was above 100 µM in each case.

As for `COc1ccc(/C(C)=C2\CCCN(Cc3ccccc3)C2)cc1`, the TGI was 36.8 µM with SK-MEL-5 melanoma; 53.5 µM in the assay on NCI-H460 lung; above 100 µM in the assay on DU-145 prostate; above 100 µM in the assay with TK-10 renal; 37.8 µM with MCF7 breast; 36.7 µM in the assay with M14 melanoma. In addition, the TGI stood at 62.2 µM with CCRF-CEM leukemia; 46.1 µM with HCT-15 colon; 57.9 µM in the assay on UACC-62 melanoma; 33.6 µM in the assay with HOP-62 NSCLC; 57.9 µM in the assay on MDA-MB-231 breast; 47.5 µM with HL-60(TB) leukemia. Also, the TGI worked out at 43.4 µM in the assay on SK-MEL-2 melanoma; 51.6 µM in the assay on MDA-MB-435; 50.6 µM with SNB-19 CNS; 36.1 µM in the assay with SW-620 colon; 39.5 µM in the assay on HT29 colon.

For the molecule `CCOC(=O)/C=C(/C(=O)OCC)n1ccc(=O)n(Cc2cn(CCCCOC(C)=O)nn2)c1=O`, the TGI with SN12C renal, in the assay with SK-MEL-5 melanoma, with NCI-H460 lung, in the assay on DU-145 prostate, with TK-10 renal and in the assay with MCF7 breast was above 100 µM in each case. Besides, the TGI in the assay with CCRF-CEM leukemia was 35.3 µM; in the assay on HCT-15 colon it was above 100 µM; in the assay on UACC-62 melanoma, above 100 µM; in the assay on HOP-62 NSCLC it was above 100 µM; in the assay on MDA-MB-231 breast, above 100 µM; in the assay with SK-MEL-2 melanoma, above 100 µM. The TGI in the assay on MDA-MB-435, in the assay with SNB-19 CNS, with SW-620 colon and in the assay with HT29 colon was above 100 µM throughout.

Regarding `CO[P@@]1(=O)O[C@@H](c2ccccc2)[C@H](O)[C@@]1(O)c1ccccc1`, the TGI in the assay with SN12C renal, with SK-MEL-5 melanoma, in the assay with NCI-H460 lung, in the assay on DU-145 prostate, with TK-10 renal and in the assay with MCF7 breast was above 100 µM in each case. For the same molecule, the TGI in the assay with M14 melanoma, in the assay on CCRF-CEM leukemia, with HCT-15 colon, in the assay with UACC-62 melanoma, in the assay with MDA-MB-231 breast and with HL-60(TB) leukemia was above 100 µM each time. Moreover, the TGI in the assay on SK-MEL-2 melanoma, in the assay with MDA-MB-435, in the assay on SNB-19 CNS, in the assay on SW-620 colon and with HT29 colon was above 100 µM in each case.

In the case of `O=c1[nH][nH]c(=O)n1Cc1ccccc1`, the TGI with SN12C renal, with SK-MEL-5 melanoma, in the assay on NCI-H460 lung, in the assay with DU-145 prostate, in the assay with TK-10 renal and in the assay with MCF7 breast was above 100 µM each time. Moreover, the TGI in the assay with M14 melanoma, with CCRF-CEM leukemia, with HCT-15 colon, in the assay with UACC-62 melanoma, in the assay on MDA-MB-231 breast and in the assay with HL-60(TB) leukemia was above 100 µM in each case. Besides, the TGI with SK-MEL-2 melanoma, in the assay on MDA-MB-435, in the assay on SNB-19 CNS, in the assay with SW-620 colon and in the assay with HT29 colon was above 100 µM in each case.

As to `CC(=O)N1C(c2[nH]c3ccccc3c2Cc2ccccc2)CCN1c1ccccc1` (stereo unspecified), the TGI in the assay on SN12C renal, with SK-MEL-5 melanoma, with NCI-H460 lung, in the assay on DU-145 prostate, with TK-10 renal and with MCF7 breast was above 10 µM throughout. Further, the TGI in the assay on M14 melanoma, in the assay on CCRF-CEM leukemia, in the assay with HCT-15 colon, in the assay with HOP-62 NSCLC, in the assay on MDA-MB-231 breast and in the assay on HL-60(TB) leukemia was above 10 µM each time. Further, the TGI in the assay with SK-MEL-2 melanoma, with MDA-MB-435, in the assay with SNB-19 CNS, with SW-620 colon and with HT29 colon was above 10 µM each time.

These data come from PubChem BioAssay (NCI).
